Source: patent EP4678638A1, “NEW E3 UBIQUITIN LIGASE LIGAND, PROTEIN DEGRADATION AGENT AND USE THEREOF” (priority 2023, dated 2024)

Columns and labels:
H1975 = assay: CCK-8 proliferation, NCI-H1975 (H1975); format: cell-based, Human; conditions: Homo sapiens, NCI-H1975; CCK-8; 96 hours; read-out: Inhibitory activity (IC50) on tumor cell proliferation, H1975
How it was run: (§1)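 Cells seeded, then after 24 h treated with 10 concentrations (top 10 µM, 5-fold serial dilution) for a line-specific time at 37°C, 5% CO2. Viability read by CCK-8; IC50 fitted from growth-inhibition curves.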

EGFR = assay: Western blot degradation of EGFR (H1975 Cell); format: cell-based, Human; conditions: Table D2
How it was run: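 Quantification by ImageJ densitometry of Western blot bands: DC50 is the fitted concentration halving band intensity relative to DMSO. Percent remaining uses internal-control normalization, and degradation rate is its complement.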

MCF7 = assay: CCK-8 proliferation, MCF7 (MCF-7); format: cell-based; conditions: Homo sapiens, MCF7; CCK-8; read-out: Inhibitory activity (IC50) on tumor cell proliferation, MCF7
How it was run: as §1

CCRF-CEM = assay: CCK-8 proliferation, CCRF-CEM; format: cell-based, Human; conditions: Homo sapiens, CCRF-CEM; CCK-8; 96 hours; read-out: Inhibitory activity (IC50) on tumor cell proliferation, CCRF-CEM
Protocol: (§2) The tumor cells used herein were cultured in a cell culture medium listed in table A1 at 37°C in an incubator with 5% CO2. Prior to experimentation, all cell lines used were correctly identified by STR profiling, and tested negative for mycoplasma contamination using a mycoplasma detection kit through routine screenings. Table A1. Tumor cells and cell culture medium used in the present disclosure
(§3) IC50 values of the compounds of the present disclosure (including the compounds in Table 1, and compounds of examples) were measured using the Meilun Cell Counting Kit-8 kit from Dalian Meilun Biotech Co., Ltd. Assay details are as follows: tumor cells were seeded in a 96-well plate at a density listed in Table A2. After 24h, 100 µL of the inoculated cells were treated with 0.5µL of the compounds of the present disclosure (including the compounds in Tables 1 and 2, and compounds of examples) at 10 different successively decreasing concentrations (starting at the highest concentration of 10µM; 5-fold serial dilutions). After the cells were treated with the compounds of the present disclosure for a period of time, the cell viability detection reagent was added to the culture medium for cell viability assessment according to the instructions provided with the CCK-8 kit. […] The growth inhibition of the compounds of the present disclosure on cells was plotted by Prism Graphpad software, and the IC50 values of the compounds of the present disclosure were calculated therefrom. […] Seeding protocol and treatment time for tumor cells

MM.1S = assay: CCK-8 proliferation, MM.1S; format: cell-based; conditions: Homo sapiens, MM1.S; CCK-8; 72 hours; read-out: Inhibitory activity (IC50) on tumor cell proliferation, MM1S
Protocol: as §2, §3

[1] = target: T1, human Cereblon WT GST-tagged protein (Homo sapiens, UniProt Q96SW2); assay: CRBN binding, HTRF (CEREBLON BINDING kit); conditions: Table II-2, CRBN binding screening, HTRF
T1 construct: purchased CISBIO 64BDCRBNPEH
T1 sequence (Q96SW2 whole entry): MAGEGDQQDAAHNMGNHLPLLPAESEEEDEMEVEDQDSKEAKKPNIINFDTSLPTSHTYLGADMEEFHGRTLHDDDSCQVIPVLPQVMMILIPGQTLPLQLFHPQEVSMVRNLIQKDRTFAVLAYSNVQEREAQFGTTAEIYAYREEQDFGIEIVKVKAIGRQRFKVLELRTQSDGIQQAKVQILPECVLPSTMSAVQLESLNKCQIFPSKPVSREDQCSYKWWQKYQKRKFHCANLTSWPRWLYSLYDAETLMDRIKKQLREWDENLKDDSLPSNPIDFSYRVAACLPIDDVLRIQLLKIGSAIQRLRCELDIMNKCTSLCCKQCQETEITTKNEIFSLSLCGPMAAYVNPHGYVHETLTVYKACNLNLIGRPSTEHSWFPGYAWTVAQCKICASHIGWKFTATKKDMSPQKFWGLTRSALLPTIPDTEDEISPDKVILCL
How it was run: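 After 3 h at room temperature, emission at 665 and 620 nm was measured in a homogeneous time-resolved fluorescence format. Compounds competed with a Thalidomide-Re probe for GST-tagged wild-type human CRBN, which was labelled with a Eu anti-GST antibody.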

Row | IC50 (H1975) [nM] | SMILES | Degradation of substrate protein EGFR (substrate protein remaining %) (EGFR) | other results
1 | 50 to 100 | O=C1CCC(Nc2cccc(CN3C[C@@H]4C[C@H]3CN4c3ccc(-c4cc(F)c5c(c4)C(=O)N(C(C(=O)Nc4nccs4)c4ncn6c4CCC6)C5)cc3)c2)C(=O)N1 (stereo partly drawn) [GT-05118, 2-(6,7-dihydro-5H-pyrrolo[1,2-c]imidazol-1-yl)-2-(6-(4-((1S,4S)-5-(3-((2,6-dioxopiperidin-3-yl)amino)benzyl)-2,5-diazabicyclo[2.2.1]heptan-2-yl)phenyl)-4-fluoro-1-oxoisoindolin-2-yl)-N-(thiazol-2-yl)acetamide] | A (A is defined as 0% ≤ substrate protein remaining % ≤ 80%) | –
2 | 1 to 10 | O=C1CCN(c2cncc(CN3C[C@H]4C[C@@H]3CN4c3ccc(-c4cc(F)c5c(c4)C(=O)N(C(C(=O)Nc4nccs4)c4ncn6c4CCC6)C5)cc3)c2)C(=O)N1 (stereo partly drawn) [GT-07388, 2-(6,7-dihydro-5H-pyrrolo[1,2-c]imidazol-1-yl)-2-(6-(4-((1R,4R)-5-((5-(2,4-dioxotetrahydropyrimidin-1(2H)-yl)pyridin-3-yl)methyl)-2,5-diazabicyclo[2.2.1]heptan-2-yl)phenyl)-4-fluoro-1-oxoisoindolin-2-yl)-N-(thiazol-2-yl)acetamide] | A (A is defined as 0% ≤ substrate protein remaining % ≤ 80%) | –
3 | 1 to 10 | O=C1CCN(c2ccc(CN3CCC(N4CCN(c5ccc(-c6cc(F)c7c(c6)C(=O)N(C(C(=O)Nc6nccs6)c6ncn8c6CCC8)C7)cc5)CC4)CC3)nc2)C(=O)N1 (stereo not shown) [GT-06329, 2-(6,7-dihydro-5H-pyrrolo[1,2-c]imidazol-1-yl)-2-(6-(4-(4-(1-((5-(2,4-dioxotetrahydropyrimidin-1(2H)-yl)pyridin-2-yl)methyl)piperidin-4-yl)piperazin-1-yl)phenyl)-4-fluoro-1-oxoisoindolin-2-yl)-N-(thiazol-2-yl)acetamide] | A (A is defined as 0% ≤ substrate protein remaining % ≤ 80%) | –
4 | 10 to 50 | O=C1CCN(c2ccc(CN3C[C@@H]4C[C@H]3CN4c3ccc(-c4cc(F)c5c(c4)C(=O)N(C(C(=O)Nc4nccs4)c4ncn6c4CCC6)C5)cc3)cc2)C(=O)N1 (stereo partly drawn) [GT-05116, 2-(6,7-dihydro-5H-pyrrolo[1,2-c]imidazol-1-yl)-2-(6-(4-((1S,4S)-5-(4-(2,4-dioxotetrahydropyrimidin-1(2H)-yl)benzyl)-2,5-diazabicyclo[2.2.1]heptan-2-yl)phenyl)-4-fluoro-1-oxoisoindolin-2-yl)-N-(thiazol-2-yl)acetamide] | A (A is defined as 0% ≤ substrate protein remaining % ≤ 80%) | –
5 | 100 to 500 | Cc1nc2c(F)cc(-c3nc(Nc4ccc(N5CCC(N6CCN(Cc7cncc(N8CCC(=O)NC8=O)c7)CC6)CC5)cn4)ncc3F)cc2n1C(C)C [GT-07488, 1-(5-((4-(1-(6-((5-fluoro-4-(4-fluoro-1-isopropyl-2-methyl-1H-benzo[d]imidazol-6-yl)pyrimidin-2-yl)amino)pyridin-3-yl)piperidin-4-yl)piperazin-1-yl)methyl)pyridin-3-yl)dihydropyrimidine-2,4(1H,3H)-dione] | – | IC50 (MCF7): 50 to 100 nM; IC50 (CCRF-CEM): 100 to 500 nM; IC50 (MM.1S): 50 to 100 nM; inhibition at 0.5 µM ([1]; at 0.5µM, read-out: Inhibition rate (%) at 0.5µM): 53 to 60%; inhibition at 2 µM ([1]; at 2 µM, read-out: Inhibition rate (%) at 2 µM): 80 to 100%
6 | 10 to 50 | O=C1CCC(Nc2cccc(CN3CCN(C4CCN(c5ccc(-c6cc(F)c7c(c6)C(=O)N(C(C(=O)Nc6nccs6)c6ncn8c6CCC8)C7)cc5)CC4(F)F)CC3)c2)C(=O)N1 (stereo not shown) [GT-06321, 2-(6,7-dihydro-5H-pyrrolo[1,2-c]imidazol-1-yl)-2-(6-(4-(4-(4-(3-((2,6-dioxopiperidin-3-yl)amino)benzyl)piperazin-1-yl)-3,3-difluoropiperidin-1-yl)phenyl)-4-fluoro-1-oxoisoindolin-2-yl)-N-(thiazol-2-yl)acetamide] | A (A is defined as 0% ≤ substrate protein remaining % ≤ 80%) | –
7 | 1 to 10 | CN(Cc1cncc(C2CCC(=O)NC2=O)c1)C1CCN(c2ccc(-c3cc(F)c4c(c3)C(=O)N(C(C(=O)Nc3nccs3)c3ncn5c3CCC5)C4)cc2)CC1 (stereo not shown) [GT-07393, 2-(6,7-dihydro-5H-pyrrolo[1,2-c]imidazol-1-yl)-2-(6-(4-(4-(((5-(2,6-dioxopiperidin-3-yl)pyridin-3-yl)methyl)(methyl)amino)piperidin-1-yl)phenyl)-4-fluoro-1-oxoisoindolin-2-yl)-N-(thiazol-2-yl)acetamide] | A (A is defined as 0% ≤ substrate protein remaining % ≤ 80%) | –
8 | 1 to 10 | O=C1CCC(c2cc(CN3C[C@H]4C[C@@H]3CN4c3ccc(-c4cc(F)c5c(c4)C(=O)N(C(C(=O)Nc4nccs4)c4ncn6c4CCC6)C5)cc3)ccn2)C(=O)N1 (stereo partly drawn) [GT-07390, 2-(6,7-dihydro-5H-pyrrolo[1,2-c]imidazol-1-yl)-2-(6-(4-((1R,4R)-5-((2-(2,6-dioxopiperidin-3-yl)pyridin-4-yl)methyl)-2,5-diazabicyclo[2.2.1]heptan-2-yl)phenyl)-4-fluoro-1-oxoisoindolin-2-yl)-N-(thiazol-2-yl)acetamide] | A (A is defined as 0% ≤ substrate protein remaining % ≤ 80%) | –
9 | 1 to 10 | O=C1CCN(c2cccc(CN3C[C@H]4C[C@@H]3CN4c3ccc(-c4cc(F)c5c(c4)C(=O)N(C(C(=O)Nc4nccs4)c4ncn6c4CCC6)C5)cc3)c2)C(=O)N1 (stereo partly drawn) [GT-06178, 2-(6,7-dihydro-5H-pyrrolo[1,2-c]imidazol-1-yl)-2-(6-(4-((1R,4R)-5-(3-(2,4-dioxotetrahydropyrimidin-1(2H)-yl)benzyl)-2,5-diazabicyclo[2.2.1]heptan-2-yl)phenyl)-4-fluoro-1-oxoisoindolin-2-yl)-N-(thiazol-2-yl)acetamide] | A (A is defined as 0% ≤ substrate protein remaining % ≤ 80%) | –
10 | 10 to 50 | O=C1CCN(c2cccc(CN3C[C@@H]4C[C@H]3CN4c3ccc(-c4cc(F)c5c(c4)C(=O)N(C(C(=O)Nc4nccs4)c4ncn6c4CCC6)C5)cc3)c2)C(=O)N1 (stereo partly drawn) [GT-05117, 2-(6,7-dihydro-5H-pyrrolo[1,2-c]imidazol-1-yl)-2-(6-(4-((1S,4S)-5-(3-(2,4-dioxotetrahydropyrimidin-1(2H)-yl)benzyl)-2,5-diazabicyclo[2.2.1]heptan-2-yl)phenyl)-4-fluoro-1-oxoisoindolin-2-yl)-N-(thiazol-2-yl)acetamide] | A (A is defined as 0% ≤ substrate protein remaining % ≤ 80%) | –
11 | 1 to 10 | O=C1CCN(c2ccc(CN3CCN(C4CCN(c5ccc(-c6cc(F)c7c(c6)C(=O)N(C(C(=O)Nc6nccs6)c6ncn8c6CCC8)C7)cc5)CC4)CC3)nc2)C(=O)N1 (stereo not shown) [GT-06246, 2-(6,7-dihydro-5H-pyrrolo[1,2-c]imidazol-1-yl)-2-(6-(4-(4-(4-((5-(2,4-dioxotetrahydropyrimidin-1(2H)-yl)pyridin-2-yl)methyl)piperazin-1-yl)piperidin-1-yl)phenyl)-4-fluoro-1-oxoisoindolin-2-yl)-N-(thiazol-2-yl)acetamide] | A (A is defined as 0% ≤ substrate protein remaining % ≤ 80%) | –
12 | 1 to 10 | O=C1CCN(c2cccc(CN3CCN(C4CCN(c5ccc(-c6cc(F)c7c(c6)C(=O)N(C(C(=O)Nc6nccs6)c6ncn8c6CCC8)C7)cc5)CC4)CC3)c2)C(=O)N1 (stereo not shown) [GT-06245, 2-(6,7-dihydro-5H-pyrrolo[1,2-c]imidazol-1-yl)-2-(6-(4-(4-(4-(3-(2,4-dioxotetrahydropyrimidin-1(2H)-yl)benzyl)piperazin-1-yl)piperidin-1-yl)phenyl)-4-fluoro-1-oxoisoindolin-2-yl)-N-(thiazol-2-yl)acetamide] | A (A is defined as 0% ≤ substrate protein remaining % ≤ 80%) | –
